We go through 60 molecules from PubChem BioAssay AID1645865 (Buhrlage Lab, Dana-Farber Cancer Institute and Novartis …, 2021).

Active and inactive are the calls of the source.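 The calls were made as follows: active = maximal inhibition of the USP30 enzyme reaching 30% or more across the dose series; inactive = the rest.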

Sequence of Ubiquitin carboxyl-terminal hydrolase 30 (Homo sapiens) (Q70CQ3 whole entry, looked up): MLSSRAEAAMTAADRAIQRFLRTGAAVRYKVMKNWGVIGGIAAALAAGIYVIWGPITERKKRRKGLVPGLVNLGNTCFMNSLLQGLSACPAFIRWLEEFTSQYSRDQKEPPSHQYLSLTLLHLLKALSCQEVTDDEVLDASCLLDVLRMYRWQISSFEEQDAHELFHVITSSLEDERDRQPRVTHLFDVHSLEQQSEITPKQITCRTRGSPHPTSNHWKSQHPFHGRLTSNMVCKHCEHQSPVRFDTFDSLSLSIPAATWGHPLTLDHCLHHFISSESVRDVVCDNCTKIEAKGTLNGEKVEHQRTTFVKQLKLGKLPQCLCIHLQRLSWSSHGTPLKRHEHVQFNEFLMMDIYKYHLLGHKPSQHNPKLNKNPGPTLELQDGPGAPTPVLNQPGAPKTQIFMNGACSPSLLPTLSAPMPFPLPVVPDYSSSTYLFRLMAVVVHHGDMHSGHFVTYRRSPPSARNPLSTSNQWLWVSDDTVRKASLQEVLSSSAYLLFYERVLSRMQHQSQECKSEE

The experiment has as its target Ubiquitin carboxyl-terminal hydrolase 30 (Homo sapiens) (UniProt Q70CQ3). Briefly: inhibitors of ubiquitin-specific protease 30 deubiquitylating enzyme, concentration dependence, in vitro biochemical, validation of primary hits (AID 1645865). The settings on record: purified USP30, Ub-rhodamine cleavage, fluorescence, 2 h.
As to `Clc1cncc(Oc2nc(-c3cccnc3)nc3ccccc23)c1`, the IC50 was 2.09 µM. With `CC(=O)N1CCc2cc(CNC(=O)Nc3cc(C)ccc3C)ccc21` the figure was > 50 µM (inactive); with `CCCNC(=O)c1ccn(-c2ccc3ccc(-c4cnn(C)c4)cn23)n1`, > 50 µM (inactive); with `COc1cccc(N2CCN(C(=O)CCNS(=O)(=O)c3ccc4c(c3)CCC(=O)N4)CC2)c1`, > 50 µM (inactive).

Regarding `O=C(Nc1ccncc1)c1ncoc1-c1cccc(Cl)c1`, the IC50 is 35.5 µM. Consider `O=[N+]([O-])c1ccc2c(c1)nc1n2CCN(Cc2ccco2)C1`, for which the IC50 is > 50 µM (inactive). For the molecule `Cn1c(COc2ccccc2)nnc1SCC(=O)Nc1ccc(N2CCOCC2)cc1`, the IC50 was 20 µM. As for `CCn1c(=O)c2ccccc2n(Cc2nc(-c3ccccc3OC)no2)c1=O`, the IC50 was > 50 µM (inactive).

`CO[C@H]1[C@@H](O)[C@H](C)O[C@H](O[C@H]2[C@H](Oc3cccc4c(O)c5c(=O)oc6ccc(C)c7c(=O)oc(c34)c5c67)O[C@H](C)[C@H](O)[C@@H]2O)[C@@H]1O`: the IC50 was > 50 µM (inactive). On to `O=C(CCCn1c(=O)c2ccccc2n(CC(=O)NCc2ccccc2Cl)c1=O)NCc1ccc2c(c1)OCO2`, for which the IC50 was 1.69 µM.

For `CCOC(=O)c1ccc(-n2c(=O)c(C#N)cc3c(=O)n4ccccc4nc32)cc1`, the IC50 is > 50 µM (inactive). As for `CCc1cc2c(=O)[nH]c(Cc3ccc(OC)cc3)nc2s1`, the figure is 40.3 µM. With `Cc1cccc(C(=O)N2CCc3cc(-c4nc(NC(=O)CNc5ccccc5)sc4C)ccc32)c1` the figure was > 50 µM (inactive); with `O=C(COc1nsnc1N1CCOCC1)Nc1ccccc1F`, > 50 µM (inactive). For the molecule `CNC(=O)CC1NC(=O)c2csc(n2)-c2ccc(-c3nc(C4=NC(C(=O)N5CCCC5C(N)=O)CO4)cs3)nc2-c2csc(n2)-c2csc(n2)C(C(O)c2ccccc2)NC(=O)CNC(=O)c2nc(sc2COC)C(C(C)C)NC(=O)c2nc1sc2C` (stereo not given), the IC50 is > 50 µM (inactive). For the molecule `O=C(Nc1nnc2n1CCCS2)c1cc2ccccc2o1`, the IC50 was > 50 µM (inactive). As for `Cc1nc2cccnc2n1C1CCN(C(=O)c2cc3cc(Cl)ccc3[nH]2)C1` (stereo not given), the figure is > 50 µM (inactive).

Take `CS(=O)(=O)NC1CCCN(C(=O)Nc2cccc3ccccc23)C1` (stereo not given): the IC50 is > 50 µM (inactive).

`COc1ccc(NC(=O)c2ccccc2OCC(=O)Nc2ccccc2C(F)(F)F)c(C)c1`: the IC50 is 28.8 µM. As for `Cc1ccc(C)c(Cn2nnc3c(=O)[nH]c(C4CCN(S(=O)(=O)c5ccc(S(=O)(=O)NC6CC6)cc5)CC4)nc32)c1`, the figure is 30.4 µM; as for `COc1cc(Cl)c(C)cc1NC(=O)Cn1c(=O)n(CC(=O)NCc2ccco2)c(=O)c2ccccc21`, 1.34 µM; as for `O=C(Nc1cc(F)c2nc(N3CCOCC3)ccc2c1)C1CC1`, > 50 µM (inactive).

As for `N#Cc1ccccc1COC(=O)c1ccc2ccccc2n1`, the IC50 was > 50 µM (inactive). With `COc1ccc(-c2nc(Cn3nnc(C(=O)Nc4ccc(C)cc4C)c3N)c(C)o2)cc1` the figure was > 5 µM (inactive); with `CCc1ccc(NC(=O)COc2cccc(-n3cnnn3)c2)cc1`, 26.6 µM. With `CC1OC(CC(=O)O)CC23OC12C(=O)c1c(O)cccc1C3=O` (stereo not given) the figure was > 50 µM (inactive); with `COc1cccc(C(=O)Oc2ccc3c(=O)c(-c4ccc(OC)c(OC)c4)coc3c2)c1`, 0.152 µM; with `O=C(Cn1c(=O)n(CC(=O)NC2CCCC2)c(=O)c2ccccc21)Nc1cc(Cl)ccc1Cl`, 2.42 µM. With `O=C(NCCc1ccccn1)c1cc(-c2ccc(Br)cc2)n[nH]1`, the IC50 was 16.4 µM. With `CCOC(=O)c1cn(C2CC2)c2cc(N3CCNCC3)c([N+](=O)[O-])cc2c1=O` the figure was > 50 µM (inactive); with `CCOC(=O)c1ccc(S(=O)(=O)N2CCC(C(=O)OC(C)C(=O)Nc3cccc([N+](=O)[O-])c3)CC2)cc1` (stereo not given), 2.51 µM.

With `Cc1ccc(-n2nc(C)c3c2NC(=O)CC3C(=O)c2cc3ccccc3o2)cc1C` (stereo not given), the IC50 was > 50 µM (inactive). With `COc1cc(NC(=O)c2cc(CN3CCOCC3)on2)cc(OC)c1` the figure was > 50 µM (inactive); with `COCCn1c(=S)[nH]c2cc(C(=O)NCCSCc3ccccc3)ccc2c1=O`, > 5 µM (inactive); with `O=[N+]([O-])c1ccc(N2CCN(c3ncnc4c3[nH]c3ccc(F)cc34)CC2)cc1`, 0.156 µM. For the molecule `O=c1ccc(-c2noc(Cc3c(F)cccc3Cl)n2)c[nH]1`, the IC50 was > 50 µM (inactive). For `O=C(Nc1ccc2c(c1)OCCO2)c1cccc2nc3ccccc3nc12`, the IC50 was 1.56 µM. With `Cc1c(C)c2ccc(OCC(=O)NCc3ccncc3)c(C)c2oc1=O` the figure was 31.1 µM; with `CC(C(=O)NCCc1ccccc1)n1nc(-c2ccccc2)c2cc(Cl)ccc21` (stereo not given), 25.4 µM.

For the molecule `COc1cccc(NC(=O)c2ccc(F)cc2Cl)c1`, the IC50 was > 50 µM (inactive). With `O=c1[nH]c2ccccc2cc1CN(Cc1ccco1)S(=O)(=O)c1ccc(F)cc1` the figure was > 50 µM (inactive); with `Cc1nn(-c2cc(N3CCOCC3)ncn2)c(C)c1CCC(=O)Nc1ccc(C(C)C)cc1`, 34.9 µM.

`Cc1ccc(C2=Nc3ccccc3N(CC(=O)Nc3cccc(C)c3C)C(=O)C2)cc1C`: the IC50 is 4.93 µM. As to `O=C(/C=C/c1ccc(F)cc1)Nc1ccc2c(c1)OCCO2`, the IC50 was > 50 µM (inactive). Regarding `COc1cc([C@@H]2c3cc4c(cc3C[C@@H]3COC(=O)[C@H]32)OCO4)cc(OC)c1OC`, the IC50 was 18.7 µM. As for `Cc1cc(C)cc(-n2ccnc(SCC(=O)Nc3cccc(Cl)c3)c2=O)c1`, the IC50 is 7.47 µM.

`CCCCn1c(=O)c(CCC(=O)OCC(=O)Nc2ccc3c(c2)OCCO3)nc2ccccc21`: the IC50 was > 50 µM (inactive). As for `COc1ccc(CCn2cnc3c([nH]c4ccccc43)c2=O)cc1`, the figure is 2.47 µM; as for `Cc1ccc(-c2nc(NC(=O)Nc3ccc(Cl)cc3)sc2C)cc1`, 5.88 µM; as for `CC1Cc2ccccc2N1C(=O)Cn1c(=O)cc(O)c2ccccc21` (stereo not given), > 50 µM (inactive).

As for `CC(=O)c1cc2c(=O)c3c(C(=O)O)c(O)c(O)cc3oc2c(C(C)=O)c1-c1coc2cc(O)c(O)c(C(=O)O)c2c1=O`, the IC50 is 4.57 µM. Take `Cc1noc(C)c1CN1CC[C@H]2O[C@H](C(=O)NCc3ccco3)CC[C@H]21`: the IC50 was > 50 µM (inactive). As for `CC(C)N1C[C@@H]2C[C@H](NS(=O)(=O)c3cccc(C#N)c3)CN2Cc2ccccc21`, the figure is > 50 µM (inactive); as for `CCc1cc2cc3c(cc2nc1SCC(=O)Nc1cccc(C(C)=O)c1)OCO3`, 2.13 µM; as for `COc1cccc(-c2cc(=O)[nH]c(Nc3nc(C)c4ccccc4n3)n2)c1`, 35.4 µM. As for `O=C(CSc1ncnc2c1oc1ccccc12)Nc1ccc2c(c1)OCCO2`, the figure is 18.7 µM; as for `COc1ccc(C(=O)N2CCCC3(C2)Nc2cccnc2NC3=NC2CCCC2)cn1` (stereo not given), > 50 µM (inactive).

Take `O=S(=O)(c1cccc(F)c1)N1CCN(c2nnnn2-c2ccccc2)CC1`: the IC50 is 31.4 µM.

Regarding `Cc1sc(NC(=O)CNc2ccccc2)nc1-c1ccc2c(c1)CCN2C(=O)C(C)C`, the IC50 is > 50 µM (inactive).

Consider `Cc1ccc(NC(=O)CCC(=O)Nc2ccc3nc(N4CCCCC4)cc(C)c3c2)c(Br)c1`, for which the IC50 was 36.4 µM.
